Reference: ChEMBL document CHEMBL3813667, “Triterpene sapogenin-polyarginine conjugates exhibit promising antibacterial activity against Gram-positive strains” (Bioorg Med Chem, 2016)
Values after ≈ are worked out from the molar mass of the structure shown. Active and inactive are the calls of the source. No cut-off for these calls is given here.

What was measured:
Staphylococcus aureus [1] = test: Antibacterial activity against Staphylococcus aureus ATCC 25923 assessed as cell lysis at 4 times MIC after 2 hrs by transmission electron microscopic analysis; assay type: functional, organism-based
[2] = Metabolic stability in human plasma assessed as compound remaining after 18 hrs by HPLC analysis; assay type: ADME, cell-free; conditions: read-out: Stability
Staphylococcus aureus [3] = test: Antibacterial activity against Staphylococcus aureus ATCC 25923 assessed as disruption of cell membrane at 4 times MIC after 2 hrs by DAPI/propidium iodide dye staining based confocal laser scanning microscopic analysis; assay type: functional, organism-based
Escherichia coli [4] = test: Antibacterial activity against Escherichia coli ATCC 25922 after 16 hrs by broth microdilution method; assay type: functional; conditions: ATCC 25922, 16 h
[5] = Therapeutic index, ratio of HC50 for human erythrocytes to MIC for Staphylococcus aureus ATCC 25923; conditions: read-out: TI
MCF7 = test: Cytotoxicity against human MCF7 cells assessed as cell viability at 62.5 ug/ml after 6 hrs by spectroscopic analysis; assay type: cell-based; conditions: mcf7, 6 h
Staphylococcus aureus [6] = test: Antibacterial activity against Staphylococcus aureus ATCC 25923 after 16 hrs by broth microdilution method; assay type: functional; conditions: ATCC 25923, 16 h
Staphylococcus aureus [7] = test: Ratio of MIC for antibacterial activity against Staphylococcus aureus ATCC 25923 in absence of human plasma to MIC for antibacterial activity against Staphylococcus aureus ATCC 25923 in presence of human plasma; assay type: functional
[8] = Therapeutic index, ratio of HC50 for human erythrocytes to MIC for Bacillus subtilis ATCC 6633; conditions: read-out: TI
Staphylococcus aureus [9] = test: Antibacterial activity against Staphylococcus aureus ATCC 25923 at 1 mg/ml up to 18 hrs by broth microdilution method in presence of human plasma; assay type: functional; conditions: ATCC 25923, Plasma
Staphylococcus aureus [10] = test: Antibacterial activity against Staphylococcus aureus ATCC 25923 at 1 mg/ml after 3 hrs by broth microdilution method in presence of human plasma; assay type: functional; conditions: ATCC 25923, Plasma
[11] = Selectivity index, ratio of cytotoxicity for human MCF7 cells to MIC for Bacillus subtilis ATCC 6633; assay type: toxicity, cell-based; conditions: read-out: Selectivity Index
[12] = Toxicity against human erythrocytes assessed as hemolysis after 1 hr by spectrophotometric analysis; assay type: cell-based, Erythrocyte
Bacillus spizizenii [13] = test: Antibacterial activity against Bacillus subtilis ATCC 6633 after 16 hrs by broth microdilution method; assay type: functional; conditions: ATCC 6633, 16 h
Staphylococcus aureus [14] = test: Antibacterial activity against Staphylococcus aureus ATCC 25923 after 16 hrs by broth microdilution method in presence of peptide-R3; assay type: functional; conditions: ATCC 25923, 16 h
Bacillus spizizenii [15] = test: Antibacterial activity against Bacillus subtilis ATCC 6633 after 16 hrs by broth microdilution method in presence of peptide-R3; assay type: functional; conditions: ATCC 6633, 16 h
Escherichia coli [16] = test: Antibacterial activity against Escherichia coli ATCC 25922 after 16 hrs by broth microdilution method in presence of peptide-R3; assay type: functional; conditions: ATCC 25922, 16 h
[17] = Solubility of the compound in water at 40 mg sonicated for 15 mins at 25 degC measured after 5 hrs; assay type: physicochemical
[18] = Metabolic stability in human plasma assessed as compound remaining after 6 hrs by HPLC analysis; assay type: ADME, cell-free; conditions: read-out: Stability

Molecule	Activity (Staphylococcus aureus [1])	remaining at 18 h [2]	Activity (Staphylococcus aureus [3])	MIC (Escherichia coli [4])	selectivity ratio [5]	Activity (MCF7)	MIC (Staphylococcus aureus [6])	Ratio (Staphylococcus aureus [7])	selectivity ratio [8]	MIC (Staphylococcus aureus [9])	MIC (Staphylococcus aureus [10])	selectivity ratio [11]	HC50 at 1 h [12]	MIC (Bacillus spizizenii [13])	MIC (Staphylococcus aureus [14])	MIC (Bacillus spizizenii [15])	MIC (Escherichia coli [16])	solubility at 5 h [17]	remaining at 6 h [18]
C=C(C)[C@@H]1CC[C@]2(C(=O)O)CC[C@]3(C)[C@H](CC[C@@H]4[C@@]5(C)CC[C@H](OC(=O)CCc6cn(CC(=O)N[C@@H](CCCNC(=N)N)C(=O)N[C@@H](CCCNC(=N)N)C(=O)N[C@@H](CCCNC(=N)N)C(=O)O)nn6)C(C)(C)[C@@H]5CC[C@]43C)[C@@H]12	Active	87%	Active	> 113 µM	62	Non-toxic	3.5 µM (≈ 3.87 µg/mL)	2	125	3.5 µM	3.5 µM	20	215 µM	1.8 µM (≈ 1.99 µg/mL)					
C=C(C)[C@@H]1CC[C@]2(C(=O)O)CC[C@]3(C)[C@H](CC[C@@H]4[C@@]5(C)CC[C@H](O)C(C)(C)[C@@H]5CC[C@]43C)[C@@H]12 [BETULINIC ACID]				> 1100 µM			547 µM (≈ 250 µg/mL)							547 µM (≈ 250 µg/mL)	> 531 µM	> 531 µM	> 531 µM		
C=C(C)[C@@H]1CC[C@]2(C(=O)OCc3cn(CC(=O)N[C@@H](CCCNC(=N)N)C(=O)N[C@@H](CCCNC(=N)N)C(=O)N[C@@H](CCCNC(=N)N)C(=O)O)nn3)CC[C@]3(C)[C@H](CC[C@@H]4[C@@]5(C)CC[C@H](O)C(C)(C)[C@@H]5CC[C@]43C)[C@@H]12				14.7 µM (≈ 15.6 µg/mL)	22		3.7 µM (≈ 3.94 µg/mL)		22				80 µM	3.7 µM (≈ 3.94 µg/mL)				98 mg/mL (≈ 92.1 mM)	
H-GIGKFLKKAKKFGKAFVKILKK-OH		1%		3.1 µM	100		1.5 µM		100				153 µM	1.5 µM					54%
C=C(C)[C@@H]1CC[C@]2(C(=O)OCc3cn(CC(=O)N[C@@H](CCCNC(=N)N)C(=O)N[C@@H](CCCNC(=N)N)C(=O)N[C@@H](CCCNC(=N)N)C(=O)N[C@@H](CCCNC(=N)N)C(=O)N[C@@H](CCCNC(=N)N)C(=O)N[C@@H](CCCNC(=N)N)C(=O)N[C@@H](CCCNC(=N)N)C(=O)N[C@@H](CCCNC(=N)N)C(=O)O)nn3)CC[C@]3(C)[C@H](CC[C@@H]4[C@@]5(C)CC[C@H](O)C(C)(C)[C@@H]5CC[C@]43C)[C@@H]12					13				13				55 µM					636 mg/mL (≈ 345 mM)	
C=C(C)[C@@H]1CC[C@]2(C(=O)OCc3cn(CC(=O)N[C@@H](CCCNC(=N)N)C(=O)N[C@@H](CCCNC(=N)N)C(=O)N[C@@H](CCCNC(=N)N)C(=O)N[C@@H](CCCNC(=N)N)C(=O)N[C@@H](CCCNC(=N)N)C(=O)O)nn3)CC[C@]3(C)[C@H](CC[C@@H]4[C@@]5(C)CC[C@H](O)C(C)(C)[C@@H]5CC[C@]43C)[C@@H]12				> 91 µM	6		5.7 µM (≈ 7.85 µg/mL)		12				35 µM	2.8 µM (≈ 3.85 µg/mL)				220 mg/mL (≈ 160 mM)	
